Results published in US12036271B2, “Peptides and combination of peptides as targets or active ingredients for use in immunotherapy against AML and other cancers” (Immatics Biotechnologies GmbH, priority 2016, dated 2024).

Test system: CD8+ T cells
Test: In vitro immunogenicity: T-cell priming with aAPCs loaded with peptide/MHC complexes and anti-CD28, pMHC multimer readout
Format: cell-based, human
Conditions: HLA-A*02 healthy donor CD8+ T cells, multimer staining
From the text: In order to obtain information regarding the immunogenicity of the TUMAPs of the present invention, the inventors performed investigations using an in vitro T-cell priming assay based on repeated stimulations of CD8+ T cells with artificial antigen presenting cells (aAPCs) loaded with peptide/MHC complexes and anti-CD28 antibody.
In order to perform in vitro stimulations by artificial antigen presenting cells loaded with peptide-MHC complex (pMHC) and anti-CD28 antibody, the inventors first isolated CD8+ T cells from fresh HLA-A*02 leukapheresis products via positive selection using CD8 microbeads (Miltenyi Biotec, Bergisch-Gladbach, Germany) of healthy donors obtained from the University clinics Mannheim, Germany, after informed consent.
PBMCs and isolated CD8+ lymphocytes were incubated in T-cell medium (TCM) until use consisting of RPMI-Glutamax (Invitrogen, Karlsruhe, Germany) supplemented with 10% heat inactivated human AB serum (PAN-Biotech, Aidenbach, Germany), 100 U/ml Penicillin/100 μg/ml Streptomycin (Cambrex, Cologne, Germany), 1 mM sodium pyruvate (CC Pro, Oberdorla, Germany), 20 μg/ml Gentamycin (Cambrex). 2.5 ng/ml IL-7 (PromoCell, Heidelberg, Germany) and 10 U/ml IL-2 (Novartis Pharma, Nürnberg, Germany) were also added to the TCM at this step.
Generation of pMHC/anti-CD28 coated beads, T-cell stimulations and readout was performed in a highly defined in vitro system using four different pMHC molecules per stimulation condition and 8 different pMHC molecules per readout condition.
The purified co-stimulatory mouse IgG2a anti human CD28 Ab 9.3 (Jung et al., 1987) was chemically biotinylated using Sulfo-N-hydroxysuccinimidobiotin as recommended by the manufacturer (Perbio, Bonn, Germany). Beads used were 5.6 μm diameter streptavidin coated polystyrene particles (Bangs Laboratories, Illinois, USA).
800.000 beads/200 μl were coated in 96-well plates in the presence of 4×12.5 ng different biotin-pMHC, washed and 600 ng biotin anti-CD28 were added subsequently in a volume of 200 μl. Stimulations were initiated in 96-well plates by co-incubating 1×10^6 CD8+ T cells with 2×10^5 washed coated beads in 200 μl TCM supplemented with 5 ng/ml IL-12 (PromoCell) for 3 days at 37° C. Half of the medium was then exchanged by fresh TCM supplemented with 80 U/ml IL-2 and incubating was continued for 4 days at 37° C. This stimulation cycle was performed for a total of three times. For the pMHC multimer readout using eight different pMHC molecules per condition, a two-dimensional combinatorial coding approach was used as previously described (Andersen et al., 2012) with minor modifications encompassing coupling to 5 different fluorochromes. Finally, multimeric analyses were performed by staining the cells with Live/dead near IR dye (Invitrogen, Karlsruhe, Germany), CD8-FITC antibody clone SK1 (BD, Heidelberg, Germany) and fluorescent pMHC multimers. For analysis, a BD LSRII SORP cytometer equipped with appropriate lasers and filters was used. Peptide specific cells were calculated as percentage of total CD8+ cells. Evaluation of multimeric analysis was done using the FlowJo software (Tree Star, Oregon, USA). In vitro priming of specific multimer+CD8+ lymphocytes was detected by comparing to negative control stimulations.

| Substance | wells |
| --- | --- |
| 193 (FLLAEDTKV; listed as Homo sapiens) [compound 193] | ++ (20%-49% = ++) |
| 191 (ALSVLRLAL; listed as Homo sapiens) [compound 191] | ++ (20%-49% = ++) |
| 192 (GLAALAVHL; listed as Homo sapiens) [compound 192] | ++ (20%-49% = ++) |
| 195 (FLFVDPELV; listed as Homo sapiens) [compound 195] | +++ (50%-69% = +++) |
| 189 (RLFEEVLGV; listed as Homo sapiens) [compound 189] | ++ (20%-49% = ++) |
| 196 (ILVDWLVQV; listed as Homo sapiens) [compound 196] | ++ (20%-49% = ++) |
| 190 (SLYKGLLSV; listed as Homo sapiens) [compound 190] | ++ (20%-49% = ++) |
| 198 (KIQEILTQV; listed as Homo sapiens) [compound 198] | ++ (20%-49% = ++) |
| 197 (VLLNEILEQV; listed as Homo sapiens) [compound 197] | ++ (20%-49% = ++) |
| 194 (LLWGNLPEI; listed as Homo sapiens) [compound 194] | ++ (20%-49% = ++) |
